Consider 3 compounds from patent publication US20260263482A1, “COMPOSITION AND METHOD FOR INDUCING LUTEOLYSIS” (WELFARE CONCEPTS LIMITED, priority 2023, published 2026).

The nature of data set [1]: Titration of cloprostenol sodium with calcium or zinc salts, cloprostenol in supernatant by HPLC. It is filed as physicochemical. On the procedure:
Water-insoluble salts of cloprostenol were investigated as a means of prolonging release of cloprostenol after administration. Solutions of cloprostenol sodium were titrated with calcium chloride, zinc chloride or zinc acetate solutions. The resulting mixtures were vortexed, left to stand overnight then observed for precipitation possibly due to formation of an insoluble salt. Samples with a visible precipitate were centrifuged at 15000 rpm for 5 min and the supernatant was then removed for analysis of cloprostenol by validated HPLC.

A further data set can be described thus: physchem. As to conditions: for solubility: water, water solubility. It is filed as physicochemical. On the procedure:
Water-in-oil (w/o) emulsions of cloprostenol sodium were investigated for use as sustained release compositions of cloprostenol. […] In aqueous solution cloprostenol sodium micellises at concentrations around 5-10 mg/ml. The minimum quantity of water to dissolve a 3 mg dose of cloprostenol (as the sodium salt) is around 0.1 ml. Accordingly, a target volume of 2 ml of water-in-oil emulsion requires a minimum proportion of around 5% water to incorporate a 3 mg dose of cloprostenol.

A short description of data set [2]: Authors' study / animal trial: half-life from terminal slope of plasma concentration versus time profile. It is filed as in vivo. As to conditions: cattle, intramuscular. On the procedure:
Literature has reported a half-life for cloprostenol of around 90 minutes, with a maximum concentration reached at around 10 to 20 minutes after administration.
The inventors have also used various models to describe the absorption kinetics of cloprostenol. The most recent model was to describe the release from SAIB formulations as occurring as a burst of some percentage of the dose followed by a rate of release proportional to the square root of time. In an animal trial, the inventors calculated the terminal slope of the plasma concentration versus time profile. If absorption is very rapid—ie. as from standard cloprostenol injection, Ovuprost™, this terminal slope is related to the elimination half-life of the cloprostenol. The inventors found this half-life to be 1 hour. The literature reports the elimination half-life of cloprostenol to be 1.5-3 hours. If absorption is slow, the terminal slope relates to the absorption rate of the cloprostenol from the injection.
In cattle, the conventional intramuscular injected dose of natural PGF2α is 25 mg whereas the intramuscular injected dose of cloprostenol in 0.5 mg. PGF2α has a half-life of about 8-10 minutes whereas the cloprostenol half-life is from around 1 hour as determined by the authors' study and reported elsewhere as 1.5-3 hours.

A short description of data set [3]: Chemical stability of cloprostenol in ethanol and Transcutol. It is filed as physicochemical. As to conditions: 40° C., 4 days, HPLC. On the procedure:
The chemical stability of cloprostenol was tested in ethanol and Transcutol. A cloprostenol solution (1 mg/ml) was prepared in each solvent and stored in at 40° C. for 4 days. The solutions were then removed and injected into HPLC for cloprostenol quantification and the chromatogram inspected for the formation of new (degradation) peaks. Cloprostenol in solution in ethanol and Transcutol at 40° C. was stable for the 4 days tested. […] There were no degradation peaks in the chromatograms.

The conditions of data set [4]: literature; cited from earlier work.

Read-outs that look alike come from different tables or passages of the source.

Regarding `O=C([O-])CCCC=CCC1C(O)CC(O)C1C=CC(O)COc1cccc(Cl)c1.O=C([O-])CCCC=CCC1C(O)CC(O)C1C=CC(O)COc1cccc(Cl)c1.[Ca+2]` (stereo not drawn) [calcium cloprostenol], the “solubility of the calcium salt” value in data set [1] (titration with calcium chloride, mixtures remained apparently clear) is “good solubility”.
On to `O=C(O)CCC/C=C\CC1C(O)CC(O)C1/C=C/C(O)COc1cccc(Cl)c1` (stereo not drawn) [cloprostenol sodium], for which, in the data set “physchem”, the “concentration at which it micellises in aqueous solution” value lay within 5000 to 10000 µg/mL and the solubility is over 10 mg/mL. The solubility in the data set “physchem” (estimated) is about 35 mg/mL.
Consider `O=C(O)CCC/C=C\CC1C(O)CC(O)C1/C=C/C(O)COc1cccc(Cl)c1` (stereo not drawn) [cloprostenol], for which the half-life in data set [2] (Holstein, 0.5 mg, very rapid absorption, standard cloprostenol injection, read-out: half-life (terminal slope, elimination) (converted)) was about 1 h; in data set [2] (0.5 mg cloprostenol as the sodium salt in a fast-release aqueous composition, read-out: estimated half-life of cloprostenol in plasma), 0.25 to 1 h. The measured drug content is on record as 102% in data set [3] (1 mg/ml in Transcutol) and 101% in data set [3] (1 mg/ml in ethanol). Besides, the “elimination half-life of cloprostenol” value in data set [4] is 1.5 to 3 h. Moreover, the half-life for cloprostenol result in data set [4] is given as “around 90 minutes”. In addition, the results for the “cloprostenol still contained in supernatant at best yield of precipitate” value in data set [1] (zinc acetate) and in data set [1] (zinc chloride as counter cation) were “around 50%” and “around 74%”, respectively.

As usually defined, the solubility is the dissolved amount per volume that the medium holds. As a reminder, the half-life is how long it takes for the measured level to halve.
